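Cells were grown in 96-well plates and exposed to each compound for 48 hours at five concentrations; endpoints were interpolated linearly between bracketing concentrations, or set to the highest concentration if not reached. The concentration for 50% growth inhibition is given as GI50.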 Activity calls are given as the source filed them. No stated cut-off is given here; in the data, active = GI50 up to about 1.1 µM and inactive = higher.
Legend:
Assay in all cases: NCI tumour cell line growth inhibition, 48 h
[1] = tested on: 786-0
[2] = tested on: A549
[3] = tested on: CCRF-CEM
[4] = tested on: HL-60
[5] = tested on: K562
[6] = tested on: MDA-MB-435
[7] = tested on: MDA-N
[8] = tested on: NCI-H460
[9] = tested on: NCI/ADR-RES
[10] = tested on: RXF 393
[11] = tested on: SF-295
[12] = tested on: SK-MEL-2
[13] = tested on: SN12C
[14] = tested on: SW-620
[15] = tested on: TK-10
[16] = tested on: U-251
[17] = tested on: UACC-257
[18] = tested on: UACC-62
[19] = tested on: M14
[20] = tested on: BT-549

Measured: GI50

COc1ccc(/C(Cl)=C(\CNc2ccccn2)c2ccccc2)cc1OC
inactive: [1] > 100 µM | [2] > 100 µM | [3] > 100 µM | [4] > 100 µM | [5] > 100 µM | [6] > 100 µM | [7] > 100 µM | [8] > 100 µM | [9] > 100 µM | [10] > 100 µM | [11] > 100 µM | [12] > 100 µM | [13] > 100 µM | [14] > 100 µM | [15] > 100 µM | [16] > 100 µM | [17] > 100 µM | [18] > 100 µM

CCCCN1/C(=N/Nc2n[nH]c(=O)c3ccccc23)SCC1c1ccc(Cl)cc1 (configuration not stated)
inactive: [1] 20 µM | [2] 5.26 µM | [4] 14.9 µM | [5] 8.17 µM | [19] 5.55 µM | [6] 11 µM | [8] 3.59 µM | [9] 8.79 µM | [10] 20.1 µM | [11] 6.53 µM | [12] 20.9 µM | [13] 24.6 µM | [14] 19.8 µM | [15] 33.9 µM | [16] 4.92 µM | [17] 12.2 µM | [18] 7.31 µM

CCCCc1ccc(N2C(=O)c3cc(C)cnc3S2(=O)=O)cc1
inactive: [1] > 100 µM | [2] > 100 µM | [4] > 100 µM | [5] > 100 µM | [19] > 100 µM | [6] > 100 µM | [7] > 100 µM | [8] > 100 µM | [9] > 100 µM | [10] 49.2 µM | [11] 91.8 µM | [12] > 100 µM | [13] > 100 µM | [14] > 100 µM | [16] > 100 µM

CN(C)c1ccc(/N=C2/NC(=N\c3ccccc3)/C(=N/c3ccccc3)S2)cc1
inactive: [1] 32 µM | [2] > 100 µM | [3] 97.5 µM | [4] > 100 µM | [19] > 100 µM | [6] > 100 µM | [7] > 100 µM | [8] > 100 µM | [9] > 100 µM | [10] 43.1 µM | [11] > 100 µM | [12] 98.2 µM | [13] > 100 µM | [14] > 100 µM | [15] 62.4 µM | [17] > 100 µM | [18] 51.2 µM

O=C(CC(c1ccccc1)C(C(=O)c1ccncc1)C(CC(=O)c1ccncc1)c1ccccc1)c1ccncc1 (configuration not stated)
inactive: [1] 68.2 µM | [2] 26.7 µM | [20] 18.5 µM | [3] > 100 µM | [4] > 100 µM | [19] > 100 µM | [6] > 100 µM | [8] 89.5 µM | [9] 49.3 µM | [11] 29.8 µM | [12] 78.7 µM | [14] > 100 µM | [15] 47.5 µM | [16] 42.8 µM | [17] > 100 µM | [18] 86.1 µM

Cc1nc(N)c(N2CCN(S(N)(=O)=O)CC2)c(O)n1
inactive: [1] > 100 µM | [2] > 100 µM | [20] > 100 µM | [3] > 100 µM | [4] > 100 µM | [5] > 100 µM | [19] > 100 µM | [6] > 100 µM | [8] > 100 µM | [9] > 100 µM | [11] > 100 µM | [12] > 100 µM | [13] > 100 µM | [14] > 100 µM | [15] > 100 µM | [16] > 100 µM | [17] > 100 µM

O=C1OC(=O)c2c1c(-c1ccccc1)nc1ccccc21
inactive: [1] > 100 µM | [2] > 100 µM | [3] > 100 µM | [4] > 100 µM | [5] > 100 µM | [19] > 100 µM | [8] > 100 µM | [10] > 100 µM | [11] > 100 µM | [12] > 100 µM | [13] > 100 µM | [14] > 100 µM | [15] > 100 µM | [16] > 100 µM | [17] > 100 µM | [18] > 100 µM

CCNC(=O)NNc1ncnc2c1c(-c1ccc(Cl)cc1)cn2-c1ccc(C)cc1
inactive: [1] 18.6 µM | [2] 17.7 µM | [3] 20.2 µM | [4] 16 µM | [5] 18.6 µM | [19] 17.7 µM | [6] 17 µM | [7] 19.8 µM | [8] 22.4 µM | [9] 20 µM | [10] 18.3 µM | [11] 15.7 µM | [12] 20.4 µM | [13] 16.5 µM | [14] 21.2 µM | [15] 34.2 µM | [16] 17.1 µM | [17] 21.3 µM | [18] 15.3 µM

CCc1cc2c(cc1O)CC[C@@H]1[C@@H]2CC[C@]2(C)[C@@H](O)CC[C@@H]12
inactive: [1] 5.21 µM | [2] 8.05 µM | [3] 5.6 µM | [4] 3.02 µM | [5] 3.88 µM | [19] 6.49 µM | [6] 1.73 µM | [7] 2.07 µM | [8] 5.42 µM | [9] 3.66 µM | [10] 3.76 µM | [11] 3.91 µM | [12] 9.82 µM | [14] 4.16 µM | [15] 21.9 µM | [16] 4.76 µM | [17] 8.02 µM | [18] > 10 µM

CC(=O)C1C(=O)C(=O)N(c2ccccc2C(C)C)C1=O (configuration not stated)
inactive: [1] > 100 µM | [2] > 100 µM | [3] > 100 µM | [4] > 100 µM | [5] > 100 µM | [19] > 100 µM | [8] > 100 µM | [10] > 100 µM | [11] > 100 µM | [12] > 100 µM | [13] > 100 µM | [14] > 100 µM | [15] > 100 µM | [16] > 100 µM | [17] > 100 µM | [18] > 100 µM

O=C1/C(=C/c2ccccc2O)N=C(c2ccccc2)N1c1nc2ccccc2s1
inactive: [1] 14.5 µM | [3] 25.5 µM | [4] 1.21 µM | [5] 7.85 µM | [19] 17.1 µM | [6] 3.1 µM | [7] 2.51 µM | [8] 11.2 µM | [9] 14.5 µM | [10] 34.3 µM | [11] 14.7 µM | [12] 9.18 µM | [14] 11.2 µM | [15] 23.8 µM | [16] 10.1 µM | [17] 19.8 µM

CSC(SC)(C(=O)O)c1cc(-c2c(Cl)cccc2Cl)no1
inactive: [1] 39.5 µM | [2] 55.1 µM | [20] 28.8 µM | [3] 26.4 µM | [5] 50.8 µM | [19] 30.2 µM | [6] 63.4 µM | [8] 34.9 µM | [9] 26.5 µM | [11] 91.2 µM | [12] 26.3 µM | [13] 62.1 µM | [14] > 100 µM | [15] > 100 µM | [16] 28.4 µM | [17] 42.9 µM | [18] 27.9 µM
